Laboratory results: EP0549352B1, “Tricyclic compounds as angiotensin II antagonists” (KYOWA HAKKO KOGYO CO., LTD., priority 1991, dated 1993)

How the values were obtained:
[1] = biological target: T1, AII receptor (Bos taurus, UniProt P25104); assay: Receptor binding test using bovine adrenal cortex ([125I]AII binding); conditions: test compound 0.1 µM; receptor binding of [125I]AII (2.5 × 10^-10M); bovine adrenal cortex membranes; room temperature, 2 hours; read-out: Inhibition Rate (%)
T1 construct: Tissue of bovine adrenal cortex was finely cut and suspended; from tissue; host or cells: bovine adrenal cortex membrane fraction
T1 sequence (P25104 1-359): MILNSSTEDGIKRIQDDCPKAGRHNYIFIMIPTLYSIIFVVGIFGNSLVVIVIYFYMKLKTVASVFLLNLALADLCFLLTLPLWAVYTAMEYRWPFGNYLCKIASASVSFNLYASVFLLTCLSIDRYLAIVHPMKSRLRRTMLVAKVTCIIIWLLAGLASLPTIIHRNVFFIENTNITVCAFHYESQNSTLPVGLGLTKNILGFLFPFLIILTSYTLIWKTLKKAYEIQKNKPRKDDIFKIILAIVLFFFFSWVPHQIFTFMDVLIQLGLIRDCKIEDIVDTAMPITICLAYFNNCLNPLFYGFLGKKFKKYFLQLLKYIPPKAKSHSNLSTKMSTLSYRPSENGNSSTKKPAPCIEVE
Experimental: Receptor binding test using bovine adrenal cortex
Tissue of bovine adrenal cortex was finely cut and suspended in a 0.25M sucrose solution containing NaHCO3, ethylenediaminetetraacetic acid (EDTA), leupepsin, pepstatin A and phenylmethanesulfonyl fluoride, followed by homogenization. The homogenate was centrifuged at 3,000 rpm for 10 minutes and the supernatant was centrifuged at 9,000 rpm. Then, the supernatant was further centrifuged at 30,000 rpm for 60 minutes and the precipitate was suspended in NaHCO3-EDTA solution, followed by centrifugation at 30,000 rpm for 60 minutes. The resulting precipitate was suspended in a phosphate buffer and the suspension was used for the binding test as an AII receptor source.
To a test compound or a solvent were added 250 µl of the AII receptor solution prepared above, 250 µl of Tris 50 mM buffer containing 0.2% bovine serum albumin (BSA), and 20 µl of [^125I]AII (2.5 × 10^-10M). The mixture was allowed to stand at room temperature for 2 hours and then filtered through a glass fiber filter (GF/B Wattman). The filter was placed in a test tube and the radioactivity was measured using a gamma-counter.
The inhibitory activity (inhibition rate) of the test compound (0.1 µM) against the receptor binding of [^125I]AII was calculated by the following equation. Inhibition Rate (%) =(1-((Binding Amount in the Presence of a Test Compound)-(Nonspecific Binding Amount))/((Total Binding Amount)-(Nonspecific Binding Amount)))× 100 [formula]
The binding amount in the presence of a test compound is the amount of radioactivity of [^125I]AII bound in the presence of a test compound (0.1 µM).
The total binding amount is the amount of radioactivity of [^125I]AII bound in the absence of a test compound.
The nonspecific binding amount is the amount of radioactivity of [^125I]AII bound in the presence of 1 µM AII.

[2] = system: hypertensive response to AII; assay: Inhibition test against hypertensive response to AII; format: in vivo, Male Wistar rats; conditions: test compound 1 mg/kg orally; 0.3 µg/kg AII intravenously one hour after dosing; average artery blood pressure
Experimental: Inhibition test against hypertensive response to AII
Male Wistar rats were anesthetized with pentobarbital. A cannula for blood pressure measurement was inserted from the right femoral artery into the abdominal aorta and another cannula for AII injection was inserted into the right femoral vein. The cannulae were passed under skin and fixed after coming out of the back, and the blood pressure was recorded on a polygraph from the artery cannula using a voltage transformer.
On the day after operation, 0.3 µg/kg AII was intravenously injected into each animal and the change in the average artery blood pressure was examined as the control pressor response. Then, a test compound (1 mg/kg) was orally administered and after one hour, 0.3 µg/kg AII was injected again, followed by examination of the pressor response. The inhibitory effect of the test compound against the control pressor response was determined as the inhibition rate.

inhibition at 0.1 µM [1]: 86%
SMILES: CCc1nc2c(C)cc(C)nc2n1Cc1ccc2c(c1)CCc1ccccc1N2Cc1nnn[nH]1 [Compound 32, 2-(5,7-Dimethyl-2-ethyl-3H-imidazo[4,5-b]pyridin-3-yl)methyl-5-(1H-tetrazol-5-yl)methyl-5H-10,11-dihydrodibenz[b,f]azepine]
inhibition rate against the control pressor response [2]: 45%
